Experimental data: US11780826B2 (Amgen Inc., priority 2017, dated 2023)

System: Bovine cardiac myofibrils
Experiment: In vitro model of dose-dependent myofibril ATPase modulation (AC1.4, pyruvate kinase/lactate dehydrogenase-coupled ATPase assay at pCa25)
Type: biochemical
Details: concentration at which ATPase activity was 1.4-fold higher than the bottom of the dose curve, mean of a minimum of two independent tests
Outline: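 Coupled-enzyme ATPase on bovine heart myofibrils, 1 mM ATP, EGTA/CaCl2 buffered; 340 nm readout.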

| AC1.4 [µM] | Compound |
| --- | --- |
| 0.582 | CCS(=O)(=O)c1cccc(C(=O)N2[C@@H](C(=O)N[C@@H](c3ccc(C(F)(F)F)cc3F)C3CC3)C[C@H]3C[C@H]32)c1 [Example 246, (1R,3R,5R)-N-((R)-cyclopropyl(2-fluoro-4-(trifluoromethyl)phenyl)methyl)-2-(3-(ethylsulfonyl)benzoyl)-2-azabicyclo[3.1.0]hexane-3-carboxamide] |
| 0.5868 | O=C(N[C@@H](c1ccc(C(F)(F)F)cc1F)C1CC1)[C@H]1CCCN1C(=O)c1cccc(C2(F)CN(S(=O)(=O)C3CC3)C2)c1 [Example 247, N-((R)-cyclopropyl(2-fluoro-4-(trifluoromethyl)phenyl)methyl)-1-(3-(1-(cyclopropylsulfonyl)-3-fluoro-3-azetidinyl)benzoyl)-D-prolinamide] |
| 0.5915 | C[C@@H](NC(=O)[C@H]1CCCN1C(=O)[C@H]1CCCN(S(=O)(=O)N2CC(C#N)C2)C1)c1ccc(C(F)F)cc1 [Example 248, 1-(((3S)-1-((3-cyano-1-azetidinyl)sulfonyl)-3-piperidinyl)carbonyl)-N-((1R)-1-(4-(difluoromethyl)phenyl)ethyl)-D-prolinamide] |
| 0.5932 | O=C(N[C@@H](c1ccc(C(F)(F)F)cc1F)C1CC1)[C@H]1C[C@H]2C[C@H]2N1C(=O)c1cccc(S(=O)(=O)CCO)c1 [Example 249, (1R,3R,5R)-N-((R)-cyclopropyl(2-fluoro-4-(trifluoromethyl)phenyl)methyl)-2-(3-((2-hydroxyethyl)sulfonyl)benzoyl)-2-azabicyclo[3.1.0]hexane-3-carboxamide] |
| 0.5978 | N#Cc1ccc(CNC(=O)[C@H]2CCCN2C(=O)c2cccc(S(=O)(=O)N3CC(C#N)C3)c2)cc1 [Example 250, 1-((3-((3-cyano-1-azetidinyl)sulfonyl)phenyl)carbonyl)-N-(4-cyanobenzyl)-D-prolinamide] |
| 0.6055 | N#CC1CN(S(=O)(=O)c2cccc(C(=O)N3C[C@@H](O)C[C@@H]3C(=O)NCc3ccc(C(F)(F)F)cc3)c2)C1 [Example 251, (4S)-1-((3-((3-cyano-1-azetidinyl)sulfonyl)phenyl)carbonyl)-4-hydroxy-N-(4-(trifluoromethyl)benzyl)-D-prolinamide] |
| 0.6066 | O=C(N[C@@H](c1ccc(C(F)(F)F)cc1F)C1CC1)[C@H]1CCCN1C(=O)c1cccc(C(F)(F)F)c1 [Example 252, N-((R)-cyclopropyl(2-fluoro-4-(trifluoromethyl)phenyl)methyl)-1-(3-(trifluoromethyl)benzoyl)-D-prolinamide] |
| 0.6092 | CS(=O)(=O)c1cccc(C(=O)N2CCCC[C@@H]2C(=O)N[C@@H](c2ccc(C(F)(F)F)cc2F)C2CC2)c1 [Example 253, (2R)-N-((R)-cyclopropyl(2-fluoro-4-(trifluoromethyl)phenyl)methyl)-1-(3-(methylsulfonyl)benzoyl)-2-piperidinecarboxamide] |
| 0.6139 | C[C@@H](NC(=O)[C@H]1CCCN1C(=O)[C@@H]1CN(S(=O)(=O)N2CC(C#N)C2)CCN1)c1ccc(Cl)cc1F [Example 254, N-((1R)-1-(4-chloro-2-fluorophenyl)ethyl)-1-(((2S)-4-((3-cyano-1-azetidinyl)sulfonyl)-2-piperazinyl)carbonyl)-D-prolinamide] |
| 0.6167 | CS(=O)(=O)c1cccc(C(=O)N2CCC[C@@H]2C(=O)N[C@@H](c2ccc(Cl)c(F)c2)C2COC2)c1 [Example 255, N-((R)-(4-chloro-3-fluorophenyl)(3-oxetanyl)methyl)-1-(3-(methylsulfonyl)benzoyl)-D-prolinamide] |
| 0.632 | Cc1ccc(CNC(=O)[C@H]2CCCN2C(=O)[C@H]2CCCN(S(=O)(=O)N3CC(C#N)C3)C2)c(C)c1 [Example 256, 1-(((3S)-1-((3-cyano-1-azetidinyl)sulfonyl)-3-piperidinyl)carbonyl)-N-(2,4-dimethylbenzyl)-D-prolinamide] |
| 0.6321 | N#CC1CN(S(=O)(=O)N2CCN[C@H](C(=O)N3CCC[C@@H]3C(=O)NCc3ccc(Cl)c(Cl)c3)C2)C1 [Example 257, 1-(((2S)-4-((3-cyano-1-azetidinyl)sulfonyl)-2-piperazinyl)carbonyl)-N-(3,4-dichlorobenzyl)-D-prolinamide] |
| 0.6326 | COC1CN(S(=O)(=O)c2cccc(C(=O)N3CCC[C@@H]3C(=O)NCc3ccc(C(F)(F)F)cc3)c2)C1 [Example 258, 1-((3-((3-methoxy-1-azetidinyl)sulfonyl)phenyl)carbonyl)-N-(4-(trifluoromethyl)benzyl)-D-prolinamide] |
| 0.6372 | CC[C@@H](NC(=O)[C@H]1CCCN1C(=O)c1cccc(S(=O)(=O)N(C)C)c1)c1ccc(Cl)c(F)c1 [Example 259, N-((1R)-1-(4-chloro-3-fluorophenyl)propyl)-1-(3-(dimethylsulfamoyl)benzoyl)-D-prolinamide] |
| 0.639 | N#CC1CN(S(=O)(=O)c2cccc(C(=O)N3CCC[C@@H]3C(=O)NCc3ccc(Cl)nc3)c2)C1 [Example 260, N-((6-chloro-3-pyridinyl)methyl)-1-((3-((3-cyano-1-azetidinyl)sulfonyl)phenyl)carbonyl)-D-prolinamide] |
| 0.6468 | CS(=O)(=O)c1ccc(C(=O)N2C[C@@H](F)C[C@@H]2C(=O)N[C@@H](c2cc(F)c(Cl)cc2F)C2CC2)cn1 [Example 262, (4S)-N-((R)-(4-chloro-2,5-difluorophenyl)(cyclopropyl)methyl)-4-fluoro-1-((6-(methylsulfonyl)-3-pyridinyl)carbonyl)-D-prolinamide] |
| 0.6526 | CC(C)(C(N)=O)c1cccc(C(=O)N2[C@@H](C(=O)N[C@@H](c3cc(F)c(Cl)cc3F)C3COC3)C[C@H]3C[C@H]32)c1 [Example 263, (1R,3R,5R)-2-(3-(1-amino-2-methyl-1-oxo-2-propanyl)benzoyl)-N-((R)-(4-chloro-2,5-difluorophenyl)(3-oxetanyl)methyl)-2-azabicyclo[3.1.0]hexane-3-carboxamide] |
| 0.6615 | CS(=O)(=O)c1cccc(C(=O)N2[C@@H](C(=O)N[C@@H](c3ccc(Cl)c(F)c3)C3COC3)C[C@H]3C[C@H]32)c1 [Example 264, (1R,3R,5R)-N-((R)-(4-chloro-3-fluorophenyl)(3-oxetanyl)methyl)-2-(3-(methylsulfonyl)benzoyl)-2-azabicyclo[3.1.0]hexane-3-carboxamide] |
| 0.6674 | O=C(N[C@@H](c1cc(F)c(Cl)cc1F)C1CC1)[C@H]1C[C@H]2C[C@H]2N1C(=O)c1cc(C(F)(F)F)ccn1 [Example 266, (1R,3R,5R)-N-((R)-(4-chloro-2,5-difluorophenyl)(cyclopropyl)methyl)-2-((4-(trifluoromethyl)-2-pyridinyl)carbonyl)-2-azabicyclo[3.1.0]hexane-3-carboxamide] |
| 0.6764 | N#CC1CN(S(=O)(=O)N2CCC[C@H](C(=O)N3CCC[C@@H]3C(=O)NC(c3ccccc3)c3ccc(Cl)cc3)C2)C1 (stereo partly drawn) [Example 268, (2R)-N-((4-chlorophenyl)(phenyl)methyl)-1-((S)-1-((3-cyanoazetidin-1-yl)sulfonyl)piperidine-3-carbonyl)pyrrolidine-2-carboxamide] |
| 0.6767 | CS(=O)(=O)c1ccnc(C(=O)N2C[C@@H](F)C[C@@H]2C(=O)N[C@@H](c2cc(F)c(Cl)cc2F)C2CC2)c1 [Example 269, (4S)-N-((R)-(4-chloro-2,5-difluorophenyl)(cyclopropyl)methyl)-4-fluoro-1-((4-(methylsulfonyl)-2-pyridinyl)carbonyl)-D-prolinamide] |
| 0.6874 | C[C@H]1[C@@H](C(=O)N2CCC[C@@H]2C(=O)NCc2ccc(C(F)(F)F)cc2)CCCN1S(=O)(=O)N1CC(C#N)C1 [Example 271, 1-(((2S,3S)-1-((3-cyano-1-azetidinyl)sulfonyl)-2-methyl-3-piperidinyl)carbonyl)-N-(4-(trifluoromethyl)benzyl)-D-prolinamide] |
| 0.6904 | N#CC1CN(S(=O)(=O)N2CCC[C@H](C(=O)N3CCC[C@@H]3C(=O)NCc3ccc(F)c(Cl)c3)C2)C1 [Example 272, N-(3-chloro-4-fluorobenzyl)-1-(((3S)-1-((3-cyano-1-azetidinyl)sulfonyl)-3-piperidinyl)carbonyl)-D-prolinamide] |
| 0.6841 | CS(=O)(=O)c1cccc(C(=O)N2C[C@@H](F)C[C@@H]2C(=O)N[C@@H](c2ccc(C(F)(F)F)c(F)c2)C2COC2)c1 [Example 273, (4S)-4-fluoro-N-((R)-(3-fluoro-4-(trifluoromethyl)phenyl)(3-oxetanyl)methyl)-1-(3-(methylsulfonyl)benzoyl)-D-prolinamide] |
| 0.6977 | O=C(NCc1ccc(C(F)(F)F)cc1)[C@H]1CCCN1C(=O)[C@H]1CCCN(S(=O)(=O)N2CC(C(F)F)C2)C1 [Example 274, 1-(((3S)-1-((3-(difluoromethyl)-1-azetidinyl)sulfonyl)-3-piperidinyl)carbonyl)-N-(4-(trifluoromethyl)benzyl)-D-prolinamide] |
| 0.6922 | CCS(=O)(=O)c1cccc(C(=O)N2[C@@H](C(=O)N[C@@H](c3ccc(C(F)(F)F)cc3)C3COC3)C[C@H]3C[C@H]32)c1 [Example 275, (1R,3R,5R)-2-(3-(ethylsulfonyl)benzoyl)-N-((R)-3-oxetanyl(4-(trifluoromethyl)phenyl)methyl)-2-azabicyclo[3.1.0]hexane-3-carboxamide] |
| 0.7014 | N#CC1CN(S(=O)(=O)N2CCC[C@H](C(=O)N3CCC[C@@H]3C(=O)NC3CC(CO)c4ccccc43)C2)C1 (stereo partly drawn) [Example 276, (2R)-1-((S)-1-((3-cyanoazetidin-1-yl)sulfonyl)piperidine-3-carbonyl)-N-(3-(hydroxymethyl)-2,3-dihydro-1H-inden-1-yl)pyrrolidine-2-carboxamide] |
